The values that follow come from patent publication US10363257B2 (ZENITH EPIGENETICS LTD., priority 2013, dated 2019).

The structures appear in SMILES notation. A value given as a limit tells only on which side of the number the result lay.

The target in experiment [1] is T1, Brd4 bromodomain 1 (BRD4(1)) (Homo sapiens, UniProt O60885).
T1 construct: made in house; host or cells: E. coli BL21(DE3)
As to the kind of experiment: Inhibition of tetra-acetylated histone H4 binding to Brd4 bromodomain 1 (TR-FRET). To be noted: tetra-acetylated histone H4 peptide, first bromodomain of Brd4. The essentials: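 Serially diluted compound (0.2% DMSO) incubated 2 h at room temperature with 200 nM N-His BRD4 bromodomain 1 and 25-50 nM biotinylated tetra-acetyl H4 peptide, detected via Eu-streptavidin/XL665 anti-His. Loss of 665 nm relative to 620 nm signal gave IC50 from dose-response.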
On the technique in general: In TR-FRET formats the signal depends on donor and acceptor labels being close together.

The subject of another experiment is c-myc. In words: Inhibition of c-myc expression (mRNA, real-time PCR) in MV4-11 cells. Type of experiment: cell-based. The note with it: Human AML MV4-11 cells, 3 h, cMYC mRNA. The essentials: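 One-step TaqMan qPCR of cMYC, normalized to an internal control with Cyclophilin probes run, gave fold expression versus DMSO (0.1%) control. Samples: triplicate MV4-11 wells exposed 3 h at 37° C to rising compound concentrations in IMDM with 10% FBS.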
(In general: In qPCR the cycle at which signal appears reflects the starting amount.)

The subject of another experiment is human AML MV-4-11 cells. As to the kind of experiment: Inhibition of cell proliferation in MV4-11 cells (CellTiter Aqueous One). Type of experiment: cell-based. To be noted: MV4-11, 72 h. The gist of the method: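 IC50 values come from blank-corrected proliferation relative to DMSO controls, read as 490 nm absorbance 3–4 h after CellTiter Aqueous One addition. Before that, cells seeded at 5×10^4/well were exposed for 72 h (37° C, 5% CO2) to triplicate two-fold compound dilutions spanning 30–0.2 μM.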

In another experiment the test system is hIL-6 mRNA. As to the kind of experiment: Inhibition of hIL-6 mRNA transcription in LPS-stimulated U937 cells. Type of experiment: cell-based. The note with it: Homo sapiens, U-937; PMA-differentiated U937 cells, 1 h pretreatment, 1 ug/mL LPS stimulation, 3 h; read-out: IL-6 activity (Inhibition of hIL-6 mRNA Transcription). On the procedure:
In this example, hIL-6 mRNA in tissue culture cells was quantitated to measure the transcriptional inhibition of hIL-6 when treated with a compound of the invention.
Human leukemic monocyte lymphoma U937 cells (CRL-1593.2) were plated at a density of 3.2×10^4 cells per well in a 96-well plate in 100 μL RPMI-1640 containing 10% FBS and penicillin/streptomycin, and differentiated into macrophages for 3 days in 60 ng/mL PMA ([…]) at 37° C. in 5% CO2 prior to the addition of compound. The cells were pretreated for 1 h with increasing concentrations of test compound in 0.1% DMSO prior to stimulation with 1 ug/mL lipopolysaccharide from Escherichia coli. Triplicate wells were used for each concentration. The cells were incubated at 37° C., 5% CO2 for 3 h before the cells were harvested. At time of harvest, media was removed and cells were rinsed in 200 μL PBS. Cells were harvested using the mRNA Catcher PLUS kit according to manufacturer's instructions. The eluted mRNA was then used in a one-step quantitative real-time PCR reaction using components of the RNA UltraSense™ One-Step Kit (Life Technologies) together with Applied Biosystems TaqMan® primer-probes for hIL-6 and Cyclophilin. Real-time PCR plates were run on a VIa™ 7 real time PCR machine (Applied Biosystems), data was analyzed, normalizing the Ct values for hIL-6 to an internal control, prior to determining the fold expression of each sample, relative to the control.

Consider `Cc1noc(C)c1-c1cc2c(ncn2Cc2ccccc2)c(N)n1` [Example Compound 33, 1-benzyl-6-(3,5-dimethylisoxazol-4-yl)-1H-imidazo[4,5-c]pyridin-4-amine], for which the IC50 was at most 0.3 µM in experiment [1], 0.3 to 3 µM in the experiment with c-myc, 3 to 30 µM in the experiment with human AML MV-4-11 cells and 0.3 to 3 µM in the experiment with hIL-6 mRNA.

As for `Cc1noc(C)c1-c1cnc2c(C=O)cn(Cc3ccccc3)c2c1` [Example Compound 35, 1-benzyl-6-(3,5-dimethylisoxazol-4-yl)-1H-pyrrolo[3,2-b]pyridine-3-carbaldehyde], the IC50 in experiment [1] was at most 0.3 µM; in the experiment on c-myc, 0.3 to 3 µM; in the experiment with human AML MV-4-11 cells it was 0.3 to 3 µM; in the experiment on hIL-6 mRNA, 0.3 to 3 µM.

Take `Cc1noc(C)c1-c1cnc2nc(N3CCC3)n(Cc3ccccc3)c2c1` [compound 123, 4-(2-(azetidin-1-yl)-1-benzyl-1H-imidazo[4,5-b]pyridin-6-yl)-3,5-dimethylisoxazole]: the IC50 in experiment [1] is at most 0.3 µM; in the experiment on c-myc it was at most 0.3 µM; with human AML MV-4-11 cells, 0.3 to 3 µM; with hIL-6 mRNA, at most 0.3 µM.

Turning to `Cc1noc(C)c1-c1cnc2nc(C3CCOCC3)n(Cc3ccccc3)c2c1` [compound 220, 4-(1-benzyl-2-(tetrahydro-2H-pyran-4-yl)-1H-imidazo[4,5-b]pyridin-6-yl)-3,5-dimethylisoxazole], the IC50 is at most 0.3 µM in experiment [1], 3 to 30 µM with c-myc, 0.3 to 3 µM with human AML MV-4-11 cells and 0.3 to 3 µM in the experiment on hIL-6 mRNA.

Turning to `Cc1noc(C)c1-c1cc(N)c2nc(NC3CCOCC3)n(Cc3ccccc3)c2c1` [compound 109, 1-benzyl-6-(3,5-dimethylisoxazol-4-yl)-N2-(tetrahydro-2H-pyran-4-yl)-1H-benzo[d]imidazole-2,4-diamine], the IC50 (in experiment [1]; with c-myc; with human AML MV-4-11 cells; with hIL-6 mRNA) was at most 0.3 µM in each case.

As for `Cc1noc(C)c1-c1cnc2[nH]c(=O)n(CC3CC3)c2c1` [compound 118, 1-(cyclopropylmethyl)-6-(3,5-dimethylisoxazol-4-yl)-1H-imidazo[4,5-b]pyridin-2(3H)-one], the IC50 is at most 0.3 µM in experiment [1], 0.3 to 3 µM in the experiment on c-myc, 0.3 to 3 µM in the experiment on human AML MV-4-11 cells and 0.3 to 3 µM with hIL-6 mRNA.

Consider `Cc1cnn(C)c1-c1cc([N+](=O)[O-])c2nc(C)n(Cc3ccccc3)c2c1` [compound 81, 1-benzyl-6-(1,4-dimethyl-1H-pyrazol-5-yl)-2-methyl-4-nitro-1H-benzo[d]imidazole], for which the IC50 was 0.3 to 3 µM in experiment [1], 3 to 30 µM in the experiment on c-myc, 3 to 30 µM in the experiment with human AML MV-4-11 cells and 0.3 to 3 µM with hIL-6 mRNA.

Regarding `Cc1noc(C)c1-c1cnc2nc(C)n(Cc3ccc(Cl)cc3Cl)c2c1` [Example Compound 61, 4-(1-(2,4-dichlorobenzyl)-2-methyl-1H-imidazo[4,5-b]pyridin-6-yl)-3,5-dimethylisoxazole], the IC50 in experiment [1] is at most 0.3 µM; in the experiment with c-myc it was 0.3 to 3 µM; in the experiment with human AML MV-4-11 cells, 3 to 30 µM; in the experiment with hIL-6 mRNA, 0.3 to 3 µM.

As for `Cc1noc(C)c1-c1cnc2ccn(Cc3ccc(F)cc3)c2n1` [Example Compound 50, 4-(5-(4-fluorobenzyl)-5H-pyrrolo[2,3-b]pyrazin-3-yl)-3,5-dimethylisoxazole], the IC50 was at most 0.3 µM in experiment [1], 3 to 30 µM with c-myc, 3 to 30 µM in the experiment on human AML MV-4-11 cells and 0.3 to 3 µM in the experiment on hIL-6 mRNA.

In the case of `Cc1noc(C)c1-c1ccc2oc(=O)n(Cc3ccccc3)c2c1` [Example Compound 6, 3-Benzyl-5-(3,5-dimethylisoxazol-4-yl)benzo[d]oxazol-2(3H)-one], the IC50 (in experiment [1]; with c-myc; in the experiment on human AML MV-4-11 cells; in the experiment on hIL-6 mRNA) was 0.3 to 3 µM throughout.

Turning to `Cc1noc(C)c1-c1cc(N)c2nc(N3CCCC3)n(Cc3ccccc3)c2c1` [compound 140, 1-benzyl-6-(3,5-dimethylisoxazol-4-yl)-2-(pyrrolidin-1-yl)-1H-benzo[d]imidazol-4-amine], the IC50 (in experiment [1]; with c-myc; in the experiment with human AML MV-4-11 cells; in the experiment with hIL-6 mRNA) was at most 0.3 µM each time.

`Cc1noc(C)c1-c1cnc2nc(C)n(Cc3cccs3)c2c1` [compound 69, 3,5-dimethyl-4-(2-methyl-1-(thiophen-2-ylmethyl)-1H-imidazo[4,5-b]pyridin-6-yl)isoxazole]: the IC50 was at most 0.3 µM in experiment [1], 0.3 to 3 µM with c-myc, 0.3 to 3 µM in the experiment on human AML MV-4-11 cells and 0.3 to 3 µM in the experiment on hIL-6 mRNA.

Consider `CCNc1nc2c(NC(C)=O)cc(-c3c(C)noc3C)cc2n1Cc1ccccc1` [compound 119, N-(1-benzyl-6-(3,5-dimethylisoxazol-4-yl)-2-(ethylamino)-1H-benzo[d]imidazol-4-yl)acetamide], for which the IC50 (in experiment [1]; in the experiment with c-myc; in the experiment on human AML MV-4-11 cells; in the experiment on hIL-6 mRNA) was at most 0.3 µM each time.

Regarding `CC(=O)c1cn(Cc2ccccc2)c2cc(-c3c(C)noc3C)cnc12` [Example Compound 36, 1-(1-benzyl-6-(3,5-dimethylisoxazol-4-yl)-1H-pyrrolo[3,2-b]pyridin-3-yl)ethanone], the IC50 was at most 0.3 µM in experiment [1], 0.3 to 3 µM in the experiment on c-myc, 0.3 to 3 µM with human AML MV-4-11 cells and 0.3 to 3 µM in the experiment with hIL-6 mRNA.

For the compound `Cc1noc(C)c1-c1cc(F)c2nc(C)n(Cc3ccccc3)c2c1` [compound 158, 4-(1-benzyl-4-fluoro-2-methyl-1H-benzo[d]imidazol-6-yl)-3,5-dimethylisoxazole], the IC50 in experiment [1] is at most 0.3 µM; with c-myc, 0.3 to 3 µM; in the experiment on human AML MV-4-11 cells, 0.3 to 3 µM; with hIL-6 mRNA, 0.3 to 3 µM.

Consider `Cc1noc(C)c1-c1cnc2nc(C)n(Cc3ccc(C#N)s3)c2c1` [compound 78, 5-((6-(3,5-dimethylisoxazol-4-yl)-2-methyl-1H-imidazo[4,5-b]pyridin-1-yl)methyl)thiophene-2-carbonitrile], for which the IC50 in experiment [1] is at most 0.3 µM; in the experiment with c-myc, 3 to 30 µM; with human AML MV-4-11 cells it was 3 to 30 µM; in the experiment with hIL-6 mRNA it was 0.3 to 3 µM.

With `Cc1noc(C)c1-c1cnc2nc(N3CCOCC3)n(CC3CCCC3)c2c1` [compound 208, 4-(1-(cyclopentylmethyl)-6-(3,5-dimethylisoxazol-4-yl)-1H-imidazo[4,5-b]pyridin-2-yl)morpholine], the IC50 in experiment [1] is at most 0.3 µM; in the experiment with c-myc, at most 0.3 µM; in the experiment on human AML MV-4-11 cells, 0.3 to 3 µM; in the experiment with hIL-6 mRNA, at most 0.3 µM.

`Cc1noc(C)c1-c1cnc2c(N)cn(Cc3ccccc3)c2c1` [compound 100, 1-benzyl-6-(3,5-dimethylisoxazol-4-yl)-1H-pyrrolo[3,2-b]pyridin-3-amine]: the IC50 in experiment [1] was at most 0.3 µM; in the experiment with c-myc it was 0.3 to 3 µM; in the experiment with human AML MV-4-11 cells, 0.3 to 3 µM; with hIL-6 mRNA, 0.3 to 3 µM.

For `Cc1noc(C)c1-c1cnc2nc(NCc3cccc(C#N)c3)n(Cc3ccccc3)c2c1` [compound 217, 3-(((1-benzyl-6-(3,5-dimethylisoxazol-4-yl)-1H-imidazo[4,5-b]pyridin-2-yl)amino)methyl)benzonitrile], the IC50 is at most 0.3 µM in experiment [1], at most 0.3 µM in the experiment with c-myc, 0.3 to 3 µM in the experiment on human AML MV-4-11 cells and at most 0.3 µM in the experiment on hIL-6 mRNA.
